Experimental findings from US11505548B2, “Heterocyclic compounds and their use for treatment of helminthic infections and diseases” (Celgene Corporation, priority 2019, dated 2022) are described below.

Like-named read-outs stand apart in the source and are kept apart here.

The subject of the experiment is Onchocerca gutturosa Adult Male Worms. Nature of the experiment: Onchocerciasis in vitro screening model, worm motility score. Type of experiment: cell-based. To be noted: read-out: O. gutturosa activity level (IC50 or MED).
[1] abbreviates: Onchocerca gutturosa, Table 1 O. gutturosa, levels A/B/C, motility or MTT readout not specified.
Setting [2] is: in vitro, Onchocerca gutturosa adult male worms, class A/B/C.

Regarding `COc1ccnc(-c2nsc(Nc3ccc(C(F)(F)F)cn3)n2)c1` [Compound 176, 3-(4-methoxy-pyridin-2-yl)-N-(5-(trifluoromethyl)pyridin-2-yl)-1,2,4-thiadiazol-5-amine], under setting [1], the IC50 was below 0.2 µM. Consider `CC(=O)N(C)c1nccnc1Nc1nc(-c2cc3c(cn2)N(C(C)C)CC3)ns1` [Compound 309, N-(3-(3-(1-isopropyl-2,3-dihydro-1H-pyrrolo[2,3-c]pyridin-5-yl)-1,2,4-thiadiazol-5-ylamino)pyrazin-2-yl)-N-methylacetamide], for which, under setting [2], the half-maximal inhibitory concentration (IC50) is below 0.2 µM.

For `CN(C)c1cccnc1Nc1nc(-c2ccc(OCC(F)(F)F)cn2)ns1` [Compound 101, N3,N3-dimethyl-N2-(3-(5-(2,2,2-trifluoroethoxy)pyridin-2-yl)-1,2,4-thiadiazol-5-yl)pyridine-2,3-diamine], the IC50 under setting [1] lay within 0.2 to 0.5 µM. As to `Cc1cccnc1Nc1nc(-c2ccc(C#N)cn2)ns1` [Compound 278, 6-(5-(3-methylpyridin-2-ylamino)-1,2,4-thiadiazol-3-yl)nicotinonitrile], under setting [2], the IC50 lay within 0.5 to 5 µM.

Take `CC(C)Oc1ccc(-c2nsc(Nc3ncccc3N(C)C)n2)nn1` [Compound 155, N2-(3-(6-isopropoxy-pyridazin-3-yl)-1,2,4-thiadiazol-5-yl)-N3,N3-dimethyl-pyridine-2,3-diamine]: the IC50 under setting [1] lay within 0.5 to 5 µM.

Consider `O=C(NC1CC(F)(F)C1)c1ccc(Nc2nc(-c3ccc(OC4CC4)cn3)ns2)nc1` [Compound 107, 6-(3-(5-cyclo-propoxypyridin-2-yl)-1,2,4-thiadiazol-5-ylamino)-N-(3,3-difluoro-cyclobutyl) nicotinamide], for which, under setting [1], the half-maximal inhibitory concentration (IC50) was in the range of 0.5 to 5 µM. Still for that read-out and setting: with `CNc1cccnc1Nc1nc(-c2ccc(OC3CCN(C4CC4)CC3(F)F)cn2)ns1` (stereo not shown) [Compound 122, N2-(3-(5-(1-cyclopropyl-3,3-difluoropiperidin-4-yloxy)pyridin-2-yl)-1,2,4-thiadiazol-5-yl)-N3-methyl-pyridine-2,3-diamine] the figure was 0.2 to 0.5 µM; with `CN(C)c1cccnc1Nc1nc(-c2ncccc2OC2CC2)ns1` [Compound 117, N2-(3-(3-cycloprop-oxypyridin-2-yl)-1,2,4-thiadiazol-5-yl)-N3,N3-dimethyl-pyridine-2,3-diamine], 0.2 to 0.5 µM. Regarding `CC(C)Oc1cnc(-c2nsc(Nc3ncccc3C(C)C)n2)cc1C(F)(F)F` [Compound 168, 3-(5-isoprop-oxy-4-(trifluoromethyl)pyridin-2-yl)-N-(3-isopropyl-pyridin-2-yl)-1,2,4-thiadiazol-5-amine], the concentration for half-maximal inhibition (IC50) under setting [1] is below 0.2 µM.

In the case of `CC(C)Oc1cnc(-c2nsc(Nc3ncccc3C(=O)N(C)C)n2)cc1C(F)F` [Compound 260, 2-(3-(4-(difluoro-methyl)-5-isopropoxy-pyridin-2-yl)-1,2,4-thiadiazol-5-ylamino)-N,N-dimethyl-nicotinamide], the IC50 under setting [2] lay within 0.5 to 5 µM. Consider `COc1cccnc1Nc1nc(-c2ccc(OCC(F)(F)F)cn2)ns1` [Compound 105, N-(3-methoxy-pyridin-2-yl)-3-(5-(2,2,2-trifluoroethoxy)pyridin-2-yl)-1,2,4-thiadiazol-5-amine], for which the half-inhibitory concentration (IC50) under setting [1] was below 0.2 µM. `CN1CCC(Oc2ccc(-c3nsc(Nc4ncccn4)n3)nc2)CC1` [Compound 36, 3-(5-(1-methyl-piperidin-4-yloxy)pyridin-2-yl)-N-(pyrimidin-2-yl)-1,2,4-thiadiazol-5-amine]: the IC50 under setting [1] fell in the range of 0.5 to 5 µM. As for `CN1CCc2cc(-c3nsc(Nc4ncccc4S(=O)(=O)N(C)C)n3)ncc21` [Compound 307, N,N-dimethyl-2-(3-(1-methyl-2,3-dihydro-1H-pyrrolo[2,3-c]pyridin-5-yl)-1,2,4-thiadiazol-5-ylamino) pyridine-3-sulfonamide], the IC50 under setting [2] was in the range of 0.5 to 5 µM. The same measure, in the same setting: to `Cc1cnc(Nc2nc(-c3cc(C(=O)N(C)C)c(OC(C)C)cn3)ns2)c(C(F)(F)F)c1` [Compound 254, 5-isopropoxy-N,N-dimethyl-2-(5-(5-methyl-3-(trifluoromethyl)pyridin-2-ylamino)-1,2,4-thiadiazol-3-yl)isonico-tinamide] belongs 0.5 to 5 µM. The same measure, in the same setting: to `c1ccc(-c2ccnc(Nc3nnc(-c4ccccn4)[nH]3)c2)cc1` [Compound 241, 4-phenyl-N-(5-(pyridin-2-yl)-4H-1,2,4-triazol-3-yl) pyridin-2-amine] belongs below 0.2 µM. For `Cc1ccnc(Nc2nc(-c3ncccc3C(F)(F)F)ns2)c1` [Compound 13, N-(4-methyl-pyridin-2-yl)-3-(3-(trifluoro-methyl)pyridin-2-yl)-1,2,4-thiadiazol-5-amine], under setting [1], the IC50 is 0.5 to 5 µM. The same measure, in the same setting: to `CC(C)c1cnc(Nc2nc(-c3ccccn3)n(C)n2)cc1C(F)(F)F` [Compound 143, 5-isopropyl-N-(1-methyl-5-(pyridin-2-yl)-1H-1,2,4-triazol-3-yl)-4-(trifluoromethyl) pyridin-2-amine] belongs 0.5 to 5 µM. Consider `COc1ccc(-c2nnc(Nc3cc(OC(C)C)ccn3)o2)nc1` [Compound 255, N-(4-isoprop-oxypyridin-2-yl)-5-(5-methoxy-pyridin-2-yl)-1,3,4-oxadiazol-2-amine], for which the concentration for half-maximal inhibition (IC50) under setting [2] lay in the range of 0.5 to 5 µM. Turning to `COc1ccnc(-c2nnc(Nc3ccc(C(F)(F)F)cn3)s2)c1` [Compound 174, 5-(4-methoxy-pyridin-2-yl)-N-(5-(trifluoromethyl)pyridin-2-yl)-1,3,4-thiadiazol-2-amine], the concentration for half-maximal inhibition (IC50) under setting [1] fell in the range of 0.2 to 0.5 µM. Still for that read-out and setting: to `COc1ccc(-c2nsc(Nc3cc(C(F)(F)F)c(C(C)C)cn3)n2)nc1` [Compound 66, N-(5-isopropyl-4-(trifluoromethyl)pyridin-2-yl)-3-(5-methoxy-pyridin-2-yl)-1,2,4-thiadiazol-5-amine] belongs 0.2 to 0.5 µM; to `Cc1cccnc1Nc1nnc(-c2cc(OC(C)C)ccn2)s1` [Compound 173, 5-(4-isopropoxy-pyridin-2-yl)-N-(3-methyl-pyridin-2-yl)-1,3,4-thia-diazol-2-amine], 0.5 to 5 µM. The same measure, in the same setting: with `CC(C)Oc1ccc(-c2nsc(Nc3ncccc3C(=O)N(C)C3CC(F)(F)C3)n2)nc1` [Compound 191, N-(3,3-difluoro-cyclobutyl)-2-(3-(5-isoprop-oxypyridin-2-yl)-1,2,4-thiadiazol-5-ylamino)-N-methyl-nicotinamide] the figure was 0.2 to 0.5 µM; with `c1ccc(-c2nsc(Nc3ccc(N4CCCC4)cn3)n2)nc1` [Cmpd 8, 3-(pyridin-2-yl)-N-(5-(pyrrolidin-1-yl)pyridin-2-yl)-1,2,4-thiadiazol-5-amine], below 0.2 µM.

Consider `CC(C)Oc1ccc(-c2nsc(N(C)c3ncccc3N(C)C)n2)nc1` [Compound 139, N2-(3-(5-isoprop-oxypyridin-2-yl)-1,2,4-thiadiazol-5-yl)-N2,N3,N3-trimethylpyridine-2,3-diamine], for which the IC50 under setting [1] lay in the range of 0.5 to 5 µM. Same read-out and setting: with `Cc1ccnc(-c2nsc(Nc3ncccc3F)n2)c1` [Compound 12, N-(3-fluoropyridin-2-yl)-3-(4-methylpyridin-2-yl)-1,2,4-thiadiazol-5-amine] the figure was below 0.2 µM; with `Cc1cccnc1Nc1nc(-c2ccc(OC(C)C)cn2)no1` [Compound 20, 3-(5-isopropoxy-pyridin-2-yl)-N-(3-methyl-pyridin-2-yl)-1,2,4-oxadiazol-5-amine], below 0.2 µM.

For `CC(=O)N1CCN(c2ccc(Nc3nc(-c4ccc(OC5CC5)cn4)ns3)nc2)CC1` [Compound 112, 1-(4-(6-(3-(5-cyclopropoxy-pyridin-2-yl)-1,2,4-thiadiazol-5-ylamino)pyridin-3-yl)piperazin-1-yl) ethanone], the IC50 under setting [1] was 0.2 to 0.5 µM. Regarding `CC(C)Oc1ccnc(-c2nsc(Nc3ncccc3S(=O)(=O)N(C)C)n2)c1` [Compound 308, 2-(3-(4-isoprop-oxypyridin-2-yl)-1,2,4-thiadiazol-5-ylamino)-N,N-dimethyl-pyridine-3-sulfonamide], the IC50 under setting [2] is below 0.2 µM. `CCOc1ccc(Nc2nc(-c3ncccc3F)no2)nc1` [Compound 25, N-(5-ethoxy-pyridin-2-yl)-3-(3-fluoropyridin-2-yl)-1,2,4-oxadiazol-5-amine]: the IC50 under setting [1] was below 0.2 µM. `CC(=O)N(C)c1cc(C(F)(F)F)cnc1Nc1nc(-c2cc(C(F)(F)F)c(OC(C)C)cn2)ns1` [Compound 268, N-(2-(3-(5-isopropoxy-4-(trifluoromethyl)pyridin-2-yl)-1,2,4-thiadiazol-5-ylamino)-5-(trifluoromethyl)pyridin-3-yl)-N-methylacetamide]: the half-maximal inhibitory concentration (IC50) under setting [2] is 0.5 to 5 µM. Still for that read-out and setting: with `CC(C)c1ccnc(-c2nsc(Nc3ncccc3N(C)C(=O)C3CC3)n2)c1` [Compound 217, N-(2-(3-(4-isopropylpyridin-2-yl)-1,2,4-thiadiazol-5-ylamino)pyridin-3-yl)-N-methylcyclo-propanecarbox-amide] the figure was 0.2 to 0.5 µM.

For the compound `Cc1cccnc1Nc1nc(-c2ccc(OC3CCN(CC4CC4)CC3)cn2)ns1` [Compound 75, 3-(5-(1-(cyclopropyl-methyl)piperidin-4-yloxy)pyridin-2-yl)-N-(3-methylpyridin-2-yl)-1,2,4-thiadiazol-5-amine], the 50% inhibitory concentration (IC50) under setting [1] is 0.2 to 0.5 µM. On the same count and under the same terms, with `CC(C)c1cccnc1Nc1nc(-c2ccc(F)cn2)ns1` [Compound 128, 3-(5-fluoro-pyridin-2-yl)-N-(3-isopropyl-pyridin-2-yl)-1,2,4-thiadiazol-5-amine] the figure was 0.5 to 5 µM; with `Cc1cccnc1-c1noc(Nc2ccc(N3CCCC3)cn2)n1` [Compound 42, 3-(3-methyl-pyridin-2-yl)-N-(5-(pyrrolidin-1-yl)pyridin-2-yl)-1,2,4-oxadiazol-5-amine], below 0.2 µM. Regarding `COc1ccc(-c2nsc(Nc3ccc(C(C)C)cn3)n2)nc1` [Compound 185, N-(5-isopropyl-pyridin-2-yl)-3-(5-methoxy-pyridin-2-yl)-1,2,4-thiadiazol-5-amine], the concentration for half-maximal inhibition (IC50) under setting [1] was 0.2 to 0.5 µM.

On to `CC(C)COc1cnc(-c2nsc(Nc3ncccc3N(C)C)n2)cn1` [Compound 150, N2-(3-(5-isobutoxy-pyrazin-2-yl)-1,2,4-thiadiazol-5-yl)-N3,N3-dimethyl-pyridine-2,3-diamine], for which the 50% inhibitory concentration (IC50) under setting [1] lay within 0.5 to 5 µM. On the same count and under the same terms, with `CC(C)Oc1ccc(-c2nsc(Nc3ncccc3C(F)(F)F)n2)nc1` [Compound 54, 3-(5-isopropoxy-pyridin-2-yl)-N-(3-(trifluoromethyl)pyridin-2-yl)-1,2,4-thiadiazol-5-amine] the figure was below 0.2 µM.

One may read the IC50 as the concentration at which inhibition is half-maximal.
